Molecules are shown by their SMILES. Some results are limits rather than exact numbers.

In the experiment the target is T1, BCL6 (Homo sapiens, UniProt P41182).
T1 construct: HiBiT-tag knocked into endogenous BCL6 locus using CRISPR; endogenous in cells; host or cells: DHL-4_BCL6_HiBiT cells (CRISPR knock-in)
Description: BCL6_HiBiT degradation assay (2 h). The class given is cell-based. Particulars: DHL-4_BCL6_HiBiT cells, read-out: YCon (% remaining maximal effect). In short, it runs like this:
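DHL-4 cells carrying CRISPR HiBiT knock-in at endogenous BCL6, treated 2 h at 37 °C with 10-point 3-fold dilutions from 1-10 μM. BCL6 level read by Nano-Glo HiBiT lytic luminescence normalized to DMSO; four-parameter fit gives degradation EC50 and Yconstant (% remaining at maximal effect).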
As for `C[C@@H]1CN(c2ncc(Cl)c(Nc3ccc4c(c3)CC(=O)N4)n2)CC[C@H]1Nc1ccc2c(C3CCC(=O)NC3=O)nn(C)c2c1` (stereo partly drawn) [Example 114, 3-(6-(((3R,4R)-1-(5-chloro-4-((2-oxoindolin-5-yl)amino)pyrimidin-2-yl)-3-methylpiperidin-4-yl)amino)-1-methyl-1H-indazol-3-yl)piperidine-2,6-dione], the Percent BCL6 remaining at maximal degradation (Ycon) was under 20%.

As for `CC(C)N1C(=O)Cc2cc(Nc3nc(N4CC[C@@H](Nc5ccc6c(C7CCC(=O)NC7=O)nn(C)c6c5)[C@H](C)C4)ncc3Cl)ccc21` (stereo partly drawn) [Example 115, 3-(6-(((3R,4R)-1-(5-chloro-4-((1-isopropyl-2-oxoindolin-5-yl)amino)pyrimidin-2-yl)-3-methylpiperidin-4-yl)amino)-1-methyl-1H-indazol-3-yl)piperidine-2,6-dione], the Percent BCL6 remaining at maximal degradation (Ycon) is under 20%. With `C[C@@H]1CN(c2ncc(C#N)c(Nc3cc(F)c4c(c3)CC(=O)N4C)n2)CC[C@H]1Nc1ccc2c(C3CCC(=O)NC3=O)nn(C)c2c1` (stereo partly drawn) [Example 116, 2-((3R,4R)-4-((3-(2,6-dioxopiperidin-3-yl)-1-methyl-1H-indazol-6-yl)amino)-3-methylpiperidin-1-yl)-4-((7-fluoro-1-methyl-2-oxoindolin-5-yl)amino)pyrimidine-5-carbonitrile], the Percent BCL6 remaining at maximal degradation (Ycon) was under 20%. With `C[C@@H]1CN(c2ncc(C#N)c(Nc3cc4c(cc3F)N(C)C(=O)C4)n2)CC[C@H]1Nc1ccc2c(C3CCC(=O)NC3=O)nn(C)c2c1` (stereo partly drawn) [Example 117, 2-((3R,4R)-4-((3-(2,6-dioxopiperidin-3-yl)-1-methyl-1H-indazol-6-yl)amino)-3-methylpiperidin-1-yl)-4-((6-fluoro-1-methyl-2-oxoindolin-5-yl)amino)pyrimidine-5-carbonitrile], the Percent BCL6 remaining at maximal degradation (Ycon) was under 20%. Take `C[C@@H]1CN(c2ncc(C#N)c(Nc3ccc4c(c3F)CC(=O)N4C)n2)CC[C@H]1Nc1ccc2c(C3CCC(=O)NC3=O)nn(C)c2c1` (stereo partly drawn) [Example 118, 2-((3R,4R)-4-((3-(2,6-dioxopiperidin-3-yl)-1-methyl-1H-indazol-6-yl)amino)-3-methylpiperidin-1-yl)-4-((4-fluoro-1-methyl-2-oxoindolin-5-yl)amino)pyrimidine-5-carbonitrile]: the Percent BCL6 remaining at maximal degradation (Ycon) is under 20%. The figure for `C[C@@H]1CN(c2ncc(Cl)c(Nc3ccc4c(c3)CC(=O)N4CCCC(F)(F)F)n2)CC[C@H]1Nc1ccc2c(C3CCC(=O)NC3=O)nn(C)c2c1` (stereo partly drawn) [Example 119, 3-(6-(((3R,4R)-1-(5-chloro-4-((2-oxo-1-(4,4,4-trifluorobutyl)indolin-5-yl)amino)pyrimidin-2-yl)-3-methylpiperidin-4-yl)amino)-1-methyl-1H-indazol-3-yl)piperidine-2,6-dione] is under 20%; for `C[C@@H]1CN(c2ncc(Cl)c(Nc3ccc4c(c3)N(CCC(C)(C)O)C(=O)C4)n2)CC[C@H]1Nc1ccc2c(C3CCC(=O)NC3=O)nn(C)c2c1` (stereo partly drawn) [Example 120, 3-(6-(((3R,4R)-1-(5-chloro-4-((1-(3-hydroxy-3-methylbutyl)-2-oxoindolin-6-yl)amino)pyrimidin-2-yl)-3-methylpiperidin-4-yl)amino)-1-methyl-1H-indazol-3-yl)piperidine-2,6-dione] it is under 20%. `C[C@@H]1CN(c2ncc(Cl)c(Nc3ccc4c(c3)CC(=O)N4CC(C)(C)F)n2)CC[C@H]1Nc1ccc2c(C3CCC(=O)NC3=O)nn(C)c2c1` (stereo partly drawn) [Example 121, 3-(6-(((3R,4R)-1-(5-chloro-4-((1-(2-fluoro-2-methylpropyl)-2-oxoindolin-5-yl)amino)pyrimidin-2-yl)-3-methylpiperidin-4-yl)amino)-1-methyl-1H-indazol-3-yl)piperidine-2,6-dione]: the Percent BCL6 remaining at maximal degradation (Ycon) is under 20%. Turning to `Cc1nc(N2CC[C@@H](Nc3ccc4c(C5CCC(=O)NC5=O)nn(C)c4c3)[C@H](C)C2)nc(Nc2ccc3c(c2)CC(=O)N3C)c1Cl` (stereo partly drawn) [Example 122, 3-(6-(((3R,4R)-1-(5-chloro-4-methyl-6-((1-methyl-2-oxoindolin-5-yl)amino)pyrimidin-2-yl)-3-methylpiperidin-4-yl)amino)-1-methyl-1H-indazol-3-yl)piperidine-2,6-dione], the Percent BCL6 remaining at maximal degradation (Ycon) was under 20%. For the molecule `C[C@@H]1CN(c2nc(F)c(Cl)c(Nc3ccc4c(c3)CC(=O)N4C)n2)CC[C@H]1Nc1ccc2c(C3CCC(=O)NC3=O)nn(C)c2c1` (stereo partly drawn) [Example 123, 3-(6-(((3R,4R)-1-(5-chloro-4-fluoro-6-((1-methyl-2-oxoindolin-5-yl)amino)pyrimidin-2-yl)-3-methylpiperidin-4-yl)amino)-1-methyl-1H-indazol-3-yl)piperidine-2,6-dione], the Percent BCL6 remaining at maximal degradation (Ycon) was under 20%.

For `Cn1nc(C2CCC(=O)NC2=O)c2ccc(C3CCN(c4ncc(Cl)c(Nc5ccc6c(c5)CC(=O)N6)n4)CC3)cc21` (stereo not shown) [Example 124, 3-[6-[1-[5-chloro-4-[(2-oxoindolin-5-yl)amino]pyrimidin-2-yl]-4-piperidyl]-1-methyl-indazol-3-yl]piperidine-2,6-dione], the Percent BCL6 remaining at maximal degradation (Ycon) is over 60%. Take `CN1C(=O)Cc2cc(Nc3nc(N4CCC(c5ccc6c(C7CCC(=O)NC7=O)nn(C)c6c5)CC4)ncc3Cl)ccc21` (stereo not shown) [Example 125, 3-(6-(1-(5-Chloro-4-((1-methyl-2-oxoindolin-5-yl)amino)pyrimidin-2-yl)piperidin-4-yl)-1-methyl-1H-indazol-3-yl)piperidine-2,6-dione]: the Percent BCL6 remaining at maximal degradation (Ycon) was over 60%. Regarding `CN1C(=O)Cc2cc(Nc3nc(NC4CCN(c5ccc6c(C7CCC(=O)NC7=O)nn(C)c6c5)C(=O)C4)ncc3Cl)ccc21` (stereo not shown) [Example 126, 3-(6-(4-((5-chloro-4-((1-methyl-2-oxoindolin-5-yl)amino)pyrimidin-2-yl)amino)-2-oxopiperidin-1-yl)-1-methyl-1H-indazol-3-yl)piperidine-2,6-dione], the Percent BCL6 remaining at maximal degradation (Ycon) was in the range of 20 to 60%.

In the case of `CN1C(=O)Cc2cc(Nc3nc(N(C)C4CCN(c5ccc6c(C7CCC(=O)NC7=O)nn(C)c6c5)C(=O)C4)ncc3Cl)ccc21` (stereo not shown) [Example 127, 3-(6-(4-((5-chloro-4-((1-methyl-2-oxoindolin-5-yl)amino)pyrimidin-2-yl)(methyl)amino)-2-oxopiperidin-1-yl)-1-methyl-1H-indazol-3-yl)piperidine-2,6-dione], the Percent BCL6 remaining at maximal degradation (Ycon) is under 20%. The figure for `C[C@@H]1CN(c2ncc(C#N)c(Nc3ccc4c(c3)CC(=O)N4C)n2)CC[C@H]1Nc1ccc2c(N3CCC(=O)NC3=O)nn(C)c2c1` [Example 132, 2-((3R,4R)-4-((3-(2,4-dioxotetrahydropyrimidin-1(2H)-yl)-1-methyl-1H-indazol-6-yl)amino)-3-methylpiperidin-1-yl)-4-((1-methyl-2-oxoindolin-5-yl)amino)pyrimidine-5-carbonitrile] is under 20%; for `CN1C(=O)Cc2cc(Nc3nc(NC4CCN(c5ccc6c(N7CCC(=O)NC7=O)nn(C)c6c5)CC4)ncc3Cl)ccc21` [Example 133, 1-(6-(4-((5-chloro-4-((1-methyl-2-oxoindolin-5-yl)amino)pyrimidin-2-yl)amino)piperidin-1-yl)-1-methyl-1H-indazol-3-yl)dihydropyrimidine-2,4(1H,3H)-dione] it is over 60%. Regarding `CN1C(=O)Cc2cc(Nc3nc(N4CCC(c5ccc6c(N7CCC(=O)NC7=O)nn(C)c6c5)CC4)ncc3Cl)ccc21` [Example 134, 1-(6-(1-(5-chloro-4-((1-methyl-2-oxoindolin-5-yl)amino)pyrimidin-2-yl)piperidin-4-yl)-1-methyl-1H-indazol-3-yl)dihydropyrimidine-2,4(1H,3H)-dione], the Percent BCL6 remaining at maximal degradation (Ycon) is over 60%. Regarding `CN1C(=O)Cc2cc(Nc3nc(N4CCC(Nc5ccc6c(N7CCC(=O)NC7=O)nn(C)c6c5)CC4)ncc3Cl)ccc21` [Example 135, 1-(6-((1-(5-chloro-4-((1-methyl-2-oxoindolin-5-yl)amino)pyrimidin-2-yl)piperidin-4-yl)amino)-1-methyl-1H-indazol-3-yl)dihydropyrimidine-2,4(1H,3H)-dione], the Percent BCL6 remaining at maximal degradation (Ycon) is over 60%. Consider `Cn1nc(N2CCC(=O)NC2=O)c2ccc(NC3CCN(c4ncc(Cl)c(Nc5ccc6c(c5)CC(=O)N6CC(F)(F)F)n4)CC3)cc21` [Example 136, 1-(6-((1-(5-chloro-4-((2-oxo-1-(2,2,2-trifluoroethyl)indolin-5-yl)amino)pyrimidin-2-yl)piperidin-4-yl)amino)-1-methyl-1H-indazol-3-yl)dihydropyrimidine-2,4(1H,3H)-dione], for which the Percent BCL6 remaining at maximal degradation (Ycon) was over 60%. As to `Cn1nc(N2CCC(=O)NC2=O)c2ccc(NC3CCN(c4ncc(Cl)c(Nc5ccc6c(c5)CC(=O)N6CCO)n4)CC3)cc21` [Example 137, 1-(6-((1-(5-chloro-4-((1-(2-hydroxyethyl)-2-oxoindolin-5-yl)amino)pyrimidin-2-yl)piperidin-4-yl)amino)-1-methyl-1H-indazol-3-yl)dihydropyrimidine-2,4(1H,3H)-dione], the Percent BCL6 remaining at maximal degradation (Ycon) was in the range of 20 to 60%.

Take `CN1C(=O)Cc2cc(Nc3nc(N4CCC(Nc5ccc6c(N7CCC(=O)NC7=O)nn(C)c6c5)CC4)ncc3C#N)ccc21` [Example 138, 2-(4-((3-(2,4-dioxotetrahydropyrimidin-1(2H)-yl)-1-methyl-1H-indazol-6-yl)amino)piperidin-1-yl)-4-((1-methyl-2-oxoindolin-5-yl)amino)pyrimidine-5-carbonitrile]: the Percent BCL6 remaining at maximal degradation (Ycon) is over 60%. Consider `C[C@@H]1CN(c2ncc(Cl)c(Nc3ccc4c(c3)CC(=O)N4C)n2)CC[C@H]1Nc1ccc2c(-n3ccc(=O)[nH]c3=O)nn(C)c2c1` [Example 139, 1-(6-(((3R,4R)-1-(5-chloro-4-((1-methyl-2-oxoindolin-5-yl)amino)pyrimidin-2-yl)-3-methylpiperidin-4-yl)amino)-1-methyl-1H-indazol-3-yl)pyrimidine-2,4(1H,3H)-dione], for which the Percent BCL6 remaining at maximal degradation (Ycon) is under 20%.

The values are drawn from US12404239B2, “Modulators of BCL6 as ligand directed degraders” (Celgene Corporation, priority 2022, dated 2025).
